pIC50: −log10 of the molar value. Counter-ions that a name gives are not always drawn.
These compounds were tested against ROCK2 (Homo sapiens (Human), UniProt O75116) (assay: biochemical).
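Further: rho kinase enzyme reaction halted with EDTA, phospho- and non-phospho peptide separated for read-out, kinase activity inhibition derived across a dose-response series, DMSO under 2%.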

Chain of ROCK2 (O75116 whole entry, species assumed): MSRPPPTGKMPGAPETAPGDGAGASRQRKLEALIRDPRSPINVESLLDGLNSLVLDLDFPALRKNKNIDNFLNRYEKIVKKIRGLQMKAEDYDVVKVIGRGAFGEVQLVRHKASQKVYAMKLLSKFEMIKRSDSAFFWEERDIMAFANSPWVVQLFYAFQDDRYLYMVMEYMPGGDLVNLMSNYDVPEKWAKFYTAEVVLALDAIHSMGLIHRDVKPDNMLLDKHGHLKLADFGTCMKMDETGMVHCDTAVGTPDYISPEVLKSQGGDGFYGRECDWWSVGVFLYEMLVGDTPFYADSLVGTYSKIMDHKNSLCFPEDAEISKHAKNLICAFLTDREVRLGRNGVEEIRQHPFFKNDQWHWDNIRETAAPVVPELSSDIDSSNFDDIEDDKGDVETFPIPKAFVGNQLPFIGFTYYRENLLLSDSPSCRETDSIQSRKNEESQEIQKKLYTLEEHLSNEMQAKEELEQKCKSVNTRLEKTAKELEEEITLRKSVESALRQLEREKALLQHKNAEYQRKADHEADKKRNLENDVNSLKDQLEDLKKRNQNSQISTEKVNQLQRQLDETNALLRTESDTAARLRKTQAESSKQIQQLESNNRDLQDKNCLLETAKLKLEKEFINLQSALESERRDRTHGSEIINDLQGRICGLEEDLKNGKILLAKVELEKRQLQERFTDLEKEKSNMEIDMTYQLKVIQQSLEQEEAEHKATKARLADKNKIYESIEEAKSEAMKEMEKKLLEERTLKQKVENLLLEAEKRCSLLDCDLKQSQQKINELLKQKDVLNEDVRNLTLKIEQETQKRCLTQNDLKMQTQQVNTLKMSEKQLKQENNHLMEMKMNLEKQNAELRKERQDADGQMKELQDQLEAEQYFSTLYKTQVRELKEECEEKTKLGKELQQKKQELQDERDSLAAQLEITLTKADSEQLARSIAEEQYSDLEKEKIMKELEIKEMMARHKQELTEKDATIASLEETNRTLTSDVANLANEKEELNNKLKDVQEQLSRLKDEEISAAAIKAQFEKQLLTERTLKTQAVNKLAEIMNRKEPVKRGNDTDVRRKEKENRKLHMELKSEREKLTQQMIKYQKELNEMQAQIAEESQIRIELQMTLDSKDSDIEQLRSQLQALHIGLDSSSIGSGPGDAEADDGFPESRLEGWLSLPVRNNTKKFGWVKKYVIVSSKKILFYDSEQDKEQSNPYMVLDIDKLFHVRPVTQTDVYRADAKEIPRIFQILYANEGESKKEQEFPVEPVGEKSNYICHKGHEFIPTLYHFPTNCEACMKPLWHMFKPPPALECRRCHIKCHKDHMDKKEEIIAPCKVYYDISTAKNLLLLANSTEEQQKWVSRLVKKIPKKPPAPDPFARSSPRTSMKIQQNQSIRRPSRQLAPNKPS

Compound	pIC50
COc1cc(N2CCC(Nc3cccc(OC(F)F)c3)C2=O)ccc1-c1cn[nH]c1 (stereo not drawn) [Example 69, 3-((3-(difluoromethoxy)phenyl)amino)-1-(3-methoxy-4-(1H-pyrazol-4-yl)phenyl)pyrrolidin-2-one]	7.00 to 8.00
COc1cc(NC2CCN(c3ccc(-c4cn[nH]c4)cc3Cl)C2=O)ccc1F (single isomer, unassigned) [Example 162, 1-(2-chloro-4-(1H-pyrazol-4-yl)phenyl)-3-((4-fluoro-3-methoxyphenyl)amino) pyrrolidin-2-one]	5.66 to 7.00
O=C1C(Cc2ccccc2Cl)CCN1c1ccc(-c2cn[nH]c2)cc1 (stereo not drawn) [Example 95, 1-(4-(1H-pyrazol-4-yl)phenyl)-3-(2-chlorobenzyl)pyrrolidin-2-one]	5.66 to 7.00
CCc1cc(N2CCC(Nc3ccc(F)c(OC)c3)C2=O)ncc1-c1cn[nH]c1 (single isomer, unassigned) [Example 210, 1-(4-ethyl-5-(1H-pyrazol-4-yl)pyridin-2-yl)-3-((4-fluoro-3-methoxyphenyl)amino) pyrrolidin-2-one]	5.66 to 7.00
COc1cc(N2CCC(Nc3cccc(F)c3OC)C2=O)ccc1-c1cn[nH]c1 (single isomer, unassigned) [Example 150, 3-((3-fluoro-2-methoxyphenyl)amino)-1-(3-methoxy-4-(1H-pyrazol-4-yl)phenyl) pyrrolidin-2-one]	5.66 to 7.00
O=C1C(Nc2cccc(F)c2)CCN1c1ccc(-c2cn[nH]c2)cc1 (stereo not drawn) [Example 62, 1-(4-(1H-pyrazol-4-yl)phenyl)-3-((3-fluorophenyl)amino)pyrrolidin-2-one]	> 8.00
COc1nc(N2CCC(Nc3cc(C)nn3C)C2=O)ccc1-c1cn[nH]c1 (racemic) [Example 270, 3-((1,3-dimethyl-1H-pyrazol-5-yl)amino)-1-(6-methoxy-5-(1H-pyrazol-4-yl)pyridin-2-yl)pyrrolidin-2-one]	7.00 to 8.00
COc1ccc(F)c(NC2CCN(c3ccc(-c4cn[nH]c4)c(C)c3)C2=O)c1 (single isomer, unassigned) [Example 364, 3-((2-fluoro-5-methoxyphenyl)amino)-1-(3-methyl-4-(1H-pyrazol-4-yl)phenyl) pyrrolidin-2-one]	7.00 to 8.00
COc1cccc(C(=O)NC2CCN(c3ccc(-c4cn[nH]c4)cc3)C2=O)c1 (stereo not drawn) [Example 65, N-(1-(4-(1H-Pyrazol-4-yl)phenyl)-2-oxopyrrolidin-3-yl)-3-methoxybenzamide]	5.66 to 7.00
COc1nc(N2CCC(N3CCC(=O)CC3)C2=O)ccc1-c1cn[nH]c1 (racemic) [Example 292, 1-(1-(6-methoxy-5-(1H-pyrazol-4-yl)pyridin-2-yl)-2-oxopyrrolidin-3-yl)piperidin-4-one hydrochloridehydrate]	7.00 to 8.00
COc1cc(F)cc(NC2CCN(c3ccc(-c4cn[nH]c4)c(C)n3)C2=O)c1 (single isomer, unassigned) [Example 192, 3-((3-fluoro-5-methoxyphenyl)amino)-1-(6-methyl-5-(1H-pyrazol-4-yl)pyridin-2-yl)pyrrolidin-2-one]	7.00 to 8.00
COc1ccc(N[C@@H]2CCN(c3ccc(-c4cn[nH]c4)cc3)C2=O)cc1OC [Example 389, (R)-1-(4-(1H-pyrazol-4-yl)phenyl)-3-((3,4-dimethoxyphenyl)amino)pyrrolidin-2-one]	5.66 to 7.00
COCc1cc(N2CCC(Nc3cc(F)cc(OC)c3)C2=O)ccc1-c1cn[nH]c1 (single isomer, unassigned) [Example 185, 3-((3-fluoro-5-methoxyphenyl)amino)-1-(3-(methoxymethyl)-4-(1H-pyrazol-4-yl)phenyl)pyrrolidin-2-one]	5.66 to 7.00
COc1cccc(NC2CCN(c3ccc(-c4cn[nH]c4)c(OC)n3)C2=O)c1C (stereo not drawn) [Example 117, 3-((3-Methoxy-2-methylphenyl)amino)-1-(6-methoxy-5-(1H-pyrazol-4-yl)pyridin-2-yl)pyrrolidin-2-one]	> 8.00
O=C1C(CCc2ccccc2Cl)CCN1c1ccc(-c2cn[nH]c2)cc1 (stereo not drawn) [Example 100, 1-(4-(1H-pyrazol-4-yl)phenyl)-3-(2-chlorophenethyl)pyrrolidin-2-one]	5.66 to 7.00
